Results as given in patent US20230284620A1, “MIXTURES OF PYRIDAZINES AS HERBICIDAL COMPOSITIONS” (SYNGENTA CROP PROTECTION AG, priority 2020, published 2023).
“And” between values parts separate entries of the source, which are not always exact repeats. Equal entries are not always repeated.

Assays:
Test in all cases: Post-emergence glasshouse herbicide test, visual phytotoxicity
Type in all cases: in vivo
Conditions in all cases: 13 days
[1] = system: Abutilon threophrasti (ABUTH)
Procedure: (§1) Seeds of Setaria faberi (SETFA), Echinochloa crus-galli (ECHCG), Digitaria sanguinalis (DIGSA), Lolium perenne (LOLPE), Alopecurus myosuroides (ALOMY), Chenopodium album (CHEAL), Ipomoea hederacea (IPOHE), Stellaria media (STEME), Abutilon threophrasti (ABUTH) and Amaranthus retroflexus (AMARE) were sown in standard sterilised soil in pots. After cultivation for 8 days under controlled conditions in a glasshouse (at 24/19° C., day/night; 16 hours light; no humidity control), the plants were sprayed at 500 l/Ha with an aqueous spray solution derived from the formulation of the technical active ingredients in a small amount of acetone and a solvent and emulsifier mixture referred to as IF50 (11.12% Emulsogen EL360 TM+44.44% N-methylpyrrolidone+44.44% Dowanol DPM glycol ether), to create a 50 g/l solution which was then diluted using 0.2% Genapol X080 (CAS Number: 9043-30-5) as diluent to give the desired final dose of test compound.
(§2) Where active ingredients were applied as mixtures, aqueous spray solutions were prepared as above, containing both active ingredients.
(§3) The test plants were then grown under controlled conditions in a glasshouse (at 24/18° C., day/night; 15 hours light; 50% humidity) and watered twice daily. After 13 days, the test was evaluated visually for percentage phytotoxicity to the plants (where 100=total damage to plant; 0=no damage to plant; and NC=not captured) when compared to control untreated plants. Two to four replicates were applied for each treatment in a randomised block test design.
(§4) 22., E=X+Y−(X*Y/100), where • X=average percent phytotoxicity of herbicide A when applied at a certain rate • Y=average percent phytotoxicity using herbicide B when applied at a certain rate • E=the expected effect of the mixture of herbicides A and B as calculated from the Colby formula.

[2] = system: Alopecurus myosuroides (ALOMY)
Procedure: as §1, §2, §3, §4

[3] = system: Amaranthus retroflexus (AMARE)
Procedure: as §1, §2, §3, §4

[4] = system: Chenopodium album (CHEAL)
Procedure: as §1, §2, §3, §4

[5] = system: Digitaria sanguinalis (DIGSA)
Procedure: as §1, §2, §3, §4

[6] = system: Echinochloa crus-galli (ECHCG)
Procedure: as §1, §2, §3, §4

[7] = system: Ipomoea hederacea (IPOHE)
Procedure: as §1, §2, §3, §4

[8] = system: Lolium perenne (LOLPE)
Procedure: as §1, §2, §3, §4

[9] = system: Setaria faberi (SETFA)
Procedure: as §1, §2, §3, §4

[10] = system: Stellaria media (STEME)
Procedure: as §1, §2, §3, §4

SMILES: Cc1ccc2ccc(C)c(C3C(=O)C(Cl)=NN(C)C3=O)c2c1 (stereo not drawn) [A-I]
- percentage phytotoxicity ABUTH ([1]; 0.625 g/ha): 6%
- percentage phytotoxicity ABUTH ([1]; 2.5 g/ha): 21%
- percentage phytotoxicity ABUTH ([1]; 5 g/ha): 58% and 55%
- percentage phytotoxicity ABUTH ([1]; 10 g/ha): 60%
- percentage phytotoxicity ALOMY ([2]; 0.625 g/ha): 0%
- percentage phytotoxicity ALOMY ([2]; 1.25 g/ha): 0%
- percentage phytotoxicity ALOMY ([2]; 2.5 g/ha): 0%
- percentage phytotoxicity ALOMY ([2]; 5 g/ha): 9% and 0%
- percentage phytotoxicity ALOMY ([2]; 10 g/ha): 21%
- percentage phytotoxicity AMARE ([3]; 0.625 g/ha): 14%
- percentage phytotoxicity AMARE ([3]; 1.25 g/ha): 44%
- percentage phytotoxicity AMARE ([3]; 2.5 g/ha): 70%
- percentage phytotoxicity AMARE ([3]; 5 g/ha): 74%
- percentage phytotoxicity AMARE ([3]; 10 g/ha): 73%
- percentage phytotoxicity CHEAL ([4]; 0.625 g/ha): 6%
- percentage phytotoxicity CHEAL ([4]; 2.5 g/ha): 13% and 16%
- percentage phytotoxicity CHEAL ([4]; 5 g/ha): 28% and 26%
- percentage phytotoxicity DIGSA ([5]; 0.625 g/ha): 0% and 1%
- percentage phytotoxicity DIGSA ([5]; 1.25 g/ha): 0%
- percentage phytotoxicity DIGSA ([5]; 2.5 g/ha): 3% and 0%
- percentage phytotoxicity DIGSA ([5]; 5 g/ha): 22% and 21%
- percentage phytotoxicity ECHCG ([6]; 0.625 g/ha): 0%
- percentage phytotoxicity ECHCG ([6]; 1.25 g/ha): 0%
- percentage phytotoxicity ECHCG ([6]; 2.5 g/ha): 8%
- percentage phytotoxicity ECHCG ([6]; 5 g/ha): 39%
- percentage phytotoxicity ECHCG ([6]; 10 g/ha): 64%
- percentage phytotoxicity IPOHE ([7]; 0.625 g/ha): 13%
- percentage phytotoxicity IPOHE ([7]; 2.5 g/ha): 53% and 48%
- percentage phytotoxicity IPOHE ([7]; 5 g/ha): 63%
- percentage phytotoxicity IPOHE ([7]; 10 g/ha): 74%
- percentage phytotoxicity LOLPE ([8]; 0.625 g/ha): 0% and 3%
- percentage phytotoxicity LOLPE ([8]; 1.25 g/ha): 0% and 3%
- percentage phytotoxicity LOLPE ([8]; 2.5 g/ha): 3% and 1%
- percentage phytotoxicity LOLPE ([8]; 10 g/ha): 43% and 35%
- percentage phytotoxicity SETFA ([9]; 0.625 g/ha): 0%
- percentage phytotoxicity SETFA ([9]; 1.25 g/ha): 0%
- percentage phytotoxicity SETFA ([9]; 5 g/ha): 43%
- percentage phytotoxicity SETFA ([9]; 10 g/ha): 72%
- percentage phytotoxicity STEME ([10]; 0.625 g/ha): 34%
- percentage phytotoxicity STEME ([10]; 1.25 g/ha): 64% and 58%
- percentage phytotoxicity STEME ([10]; 2.5 g/ha): 66%
- percentage phytotoxicity STEME ([10]; 5 g/ha): 79%
- percentage phytotoxicity STEME ([10]; 10 g/ha): 84%

SMILES: CCOC(=O)COc1ncccc1Oc1cc(-n2c(=O)cc(C(F)(F)F)n(C)c2=O)c(F)cc1Cl [B-V]
- percentage phytotoxicity ABUTH ([1]; 0.08 g/ha): 23%
- percentage phytotoxicity ABUTH ([1]; 0.16 g/ha): 75%
- percentage phytotoxicity ABUTH ([1]; 0.32 g/ha): 85%
- percentage phytotoxicity ABUTH ([1]; 0.625 g/ha): 100%
- percentage phytotoxicity ABUTH ([1]; 1.25 g/ha): 100%
- percentage phytotoxicity ALOMY ([2]; 0.08 g/ha): 0%
- percentage phytotoxicity ALOMY ([2]; 0.16 g/ha): 5%
- percentage phytotoxicity ALOMY ([2]; 0.32 g/ha): 50%
- percentage phytotoxicity ALOMY ([2]; 0.625 g/ha): 55%
- percentage phytotoxicity ALOMY ([2]; 1.25 g/ha): 78%
- percentage phytotoxicity AMARE ([3]; 0.08 g/ha): 35%
- percentage phytotoxicity AMARE ([3]; 0.16 g/ha): 100%
- percentage phytotoxicity AMARE ([3]; 0.32 g/ha): 100%
- percentage phytotoxicity AMARE ([3]; 0.625 g/ha): 100%
- percentage phytotoxicity AMARE ([3]; 1.25 g/ha): 100%
- percentage phytotoxicity CHEAL ([4]; 0.08 g/ha): 8%
- percentage phytotoxicity CHEAL ([4]; 0.16 g/ha): 63%
- percentage phytotoxicity CHEAL ([4]; 0.32 g/ha): 78%
- percentage phytotoxicity CHEAL ([4]; 0.625 g/ha): 80%
- percentage phytotoxicity CHEAL ([4]; 1.25 g/ha): 95%
- percentage phytotoxicity DIGSA ([5]; 0.08 g/ha): 0%
- percentage phytotoxicity DIGSA ([5]; 0.16 g/ha): 13%
- percentage phytotoxicity DIGSA ([5]; 0.32 g/ha): 40%
- percentage phytotoxicity DIGSA ([5]; 0.625 g/ha): 50%
- percentage phytotoxicity DIGSA ([5]; 1.25 g/ha): 68%
- percentage phytotoxicity ECHCG ([6]; 0.08 g/ha): 0%
- percentage phytotoxicity ECHCG ([6]; 0.16 g/ha): 0%
- percentage phytotoxicity ECHCG ([6]; 0.32 g/ha): 10%
- percentage phytotoxicity ECHCG ([6]; 0.625 g/ha): 8%
- percentage phytotoxicity ECHCG ([6]; 1.25 g/ha): 20%
- percentage phytotoxicity IPOHE ([7]; 0.08 g/ha): 23%
- percentage phytotoxicity IPOHE ([7]; 0.16 g/ha): 50%
- percentage phytotoxicity IPOHE ([7]; 0.32 g/ha): 55%
- percentage phytotoxicity IPOHE ([7]; 0.625 g/ha): 93%
- percentage phytotoxicity IPOHE ([7]; 1.25 g/ha): 88%
- percentage phytotoxicity LOLPE ([8]; 0.08 g/ha): 0%
- percentage phytotoxicity LOLPE ([8]; 0.16 g/ha): 5%
- percentage phytotoxicity LOLPE ([8]; 0.32 g/ha): 38%
- percentage phytotoxicity LOLPE ([8]; 0.625 g/ha): 30%
- percentage phytotoxicity LOLPE ([8]; 1.25 g/ha): 60%
- percentage phytotoxicity SETFA ([9]; 0.08 g/ha): 0%
- percentage phytotoxicity SETFA ([9]; 0.16 g/ha): 0%
- percentage phytotoxicity SETFA ([9]; 0.32 g/ha): 20%
- percentage phytotoxicity SETFA ([9]; 0.625 g/ha): 20%
- percentage phytotoxicity SETFA ([9]; 1.25 g/ha): 33%
- percentage phytotoxicity STEME ([10]; 0.08 g/ha): 15%
- percentage phytotoxicity STEME ([10]; 0.16 g/ha): 45%
- percentage phytotoxicity STEME ([10]; 0.32 g/ha): 85%
- percentage phytotoxicity STEME ([10]; 0.625 g/ha): 95%
- percentage phytotoxicity STEME ([10]; 1.25 g/ha): 100%
